Like-named read-outs stand apart in the source and are kept apart here.
Tests used:
Format in all cases: in vivo
Heterodera glycines = test: Greenhouse nematicide test, diiodinated C2-C8 hydrocarbons in infested field soil (Experiments 1 and 2); conditions: rates ≧5.0 mg
Experimental: (§1) Additionally, the nematicidal properties of iodinated hydrocarbons were investigated in greenhouse experiments with field soil infested with Meloidogyne arenaria and Heterodera Glycines. Chemicals were added directly to infested solid at rates <100 mg/Kg soil. Treated soil was kept moist (approximately 60 percent field capacity) and uncovered for 7-10 days when samples were collected, and the pots were planted with ‘Brim’ soybean, Glycine max. […] 1,2-diiodoethane (C2), 1,3-diiodopropane (C3), 1,4-diiodobutane (C4), 1,5-diiodopentane (C5), 1,6-diiodohexane (C6), and […] were applied to soil rates of 2.5, 5.0, 7.5, and 10 mg/Kg soil. All rates of C2 and C8 were ineffective in reducing M. arenaria juvenile (J2) populations in preplant samples. This was also true for C2 and J2 populations of H. glycines; however, […] rates ≧5.0 mg suppressed J2 populations of H. glycines. […] H. glycines J2 numbers in final soil samples were generally inversely related to rates for C3-C8. […] Applications of C3-C6 to soil increased shoot weights in a manner directly related to dosages but only in a curvilinear pattern.
(§2) In this experiment, the nematicidal properties of various diiodinated hydrocarbons were compared. The nematicidal properties of diiodinated C2-C8 normal hydrocarbons was assessed in a greenhouse experiment with field soil infested with Meloidogyne arenaria [Ma] and Heterodera glycines [Hg]. 1,2-diiodoethane [C2], 1,3-diiodopropane [C3], 1,4-diiodobutane [C4], 1.5-diiodopentane [C5], 1,6-diiodohexane [C6] and 1,8-diiodooctane [C8] were applied to soil at rates of 2.5, 5.0, 7.5, and 10.0 mgs/kg soil. The potted soil was kept moist in a greenhouse for 10 days when preplant samples were collected for analysis, and the pots were planted with ‘Brim’ soybean [Glycine max]. After 7 weeks of growth, the plants were removed and final soil samples taken. Data was collected on weights of fresh roots and shoots, root galling by Ma, and numbers of nematodes in soil and roots. All rates of C2 and C8 were ineffective in reducing Ma juvenile [J2] populations in the preplant samples. This was also true for C2 and J2 populations of Hg; however, C8 rates ≧5.0 mg suppressed J2 populations of Hg. […] Hg J2 numbers in final soil samples were generally inversely related to rates for C3-C8. This pattern of suppression in J2 numbers was also applicable to Ma in the final soil samples but only for C3-C6. […] Applications of C3-C6 to soil increased shoot weights in a manner directly related to dosages but non-linear in pattern.

Meloidogyne arenaria = test: as above; conditions: for M. arenaria J2 populations in preplant samples: rates ≧5.0 mg
Experimental: as §1, §2

[1] = test system: American (Periplaneta americana) and German (Blattella germanica) cockroaches; test: Knockdown and mortality of cockroaches in sealed jar (both species); conditions: for Sensitivity of American cockroaches compared with German cockroaches: in vivo; for Knockdown of cockroaches: within 1 hour after treatment, 50 μl on cotton ball in sealed 0.95-liter jar
Experimental: (§3) In this experiment both the insecticidal and nematicidal properties of iodinated hydrocarbons were compared. In determining the insecticidal properties of the iodinated hydrocarbons, both American (Periplaneta americana) and German (Blattella germanica) cockroaches were used. Groups of cockroaches were confined in 0.95-liter glass jars with a small cotton ball. Exactly 50 μl of a test chemical was applied to the cotton ball and the jar was sealed.

[2] = test system: Cowpea weevil, Callosobruchus maculatus (F.); test: Fumigant toxicity, Cowpea weevil; design: concentration or dose not given beside the values; conditions: 30 adults
Experimental: (§4) Shown in Table 2 is the toxicity of both monoiodinated and diiodinated hydrocarbons to the German and American cockroach and the Cowpea weevil after 24 hours of exposure.

[3] = test system: American cockroach, Periplaneta americana (L.); test: Fumigant toxicity in sealed glass jar, American cockroach; conditions: 8-36 adult males; for mortality at 50 µL/jar: Periplaneta americana, inhaled or nasal
Experimental: (§5) As shown below, Table 1 depicts the toxicity of both monoiodinated and diiodinated hydrocarbons to both the German and the American cockroach after 1 hour of exposure.
as §4
as §3, with “sealed. Knockdown, defined as the inability to walk in a coordinated manner, and mortality were assessed every 15 minutes for the first hour and hourly thereafter for 8 hours and again after 24 hours.” for “sealed.”

[4] = test system: German cockroach, Blattella germanica (L.); test: Fumigant toxicity in sealed glass jar, German cockroach; conditions: 30-60 adult males; for mortality at 50 µL/jar: Blattella germanica, inhaled or nasal
Experimental: as §5, §4
as §3, with “sealed. Knockdown, defined as the inability to walk in a coordinated manner, and mortality were assessed every 15 minutes for the first hour and hourly thereafter for 8 hours and again after 24 hours.” for “sealed.”

[5] = test system: cyst [Heterodera glycines]; test: Greenhouse nematicide test, iodinated C1-C3 hydrocarbons (Experiment 4); conditions: 10 days after application; all dosages (0.1, 0.2, 0.4 ml/kg soil)
Experimental: (§6) In this experiment, the nematicidal properties of low molecular weight iodinated hydrocarbons were investigated. The nematicidal properties of iodinated C1-C3 hydrocarbons were evaluated in greenhouse experiments with field soil infested with root-knot [Meloidogyne arenaria] and cyst [Heterodera glycines] nematodes. lodomethane, di-iodomethane, iodoethane, di-iodoethane, and 1-iodopropane were added to soil at rates of 0.1, 0.2 and 0.4 ml/kg soil.
(§7) The treated soil was kept moist for 10 days when soil samples were taken for nematode analysis and ‘Brim’ soybean [Glycine max] planted. Soybeans were allowed to grow for 8 weeks and then were removed from the soil to determine plant growth, root-knot indices and the number of galls generated by M arenaria. […] All compounds except 1-iodopropane increased fresh shoot weight when applied at ≧0.1 ml/kg soil.

[6] = test system: root-knot [Meloidogyne arenaria]; test: as above; conditions: for M. arenaria [J2] juvenile populations in soil: 10 days after application, all rates (0.1, 0.2, 0.4 ml/kg soil)
Experimental: as §6, §7

[7] = test system: 'Brim' soybean [Glycine max]; test: Soybean growth in treated soil (Experiments 1 and 2)
Experimental: as §1, §2

[8] = 1 h exposure, read-out: % Mortality after 1 h exposure, American cockroach
[9] = 24 h exposure, read-out: % Mortality after 24 h exposure, American cockroach
[10] = 1 h exposure, read-out: % Mortality after 1 h exposure, German cockroach
[11] = 24 h exposure, read-out: % Mortality after 24 h exposure, German cockroach

Row | Compound | H. glycines J2 populations in preplant samples (Heterodera glycines) | M. arenaria J2 populations in preplant samples (Meloidogyne arenaria) | Sensitivity of American cockroaches compared with German cockroaches [1] | % Mortality after 24 h exposure, Cowpea weevil [2] [%] | mortality at 50 µL/jar [3, 8] [%] | mortality at 50 µL/jar [3, 9] [%] | mortality at 50 µL/jar [4, 10] [%] | mortality at 50 µL/jar [4, 11] [%] | Knockdown of cockroaches [1] [%] | H. glycines J2 populations in soil [5] | other results
1 | ICCCCCI [1,5-diiodopentane] | virtually eliminated | virtually eliminated | more sensitive | 37 | 11 | 0 | 0 | 0 |  |  | 
2 | CCCI [1-iodopropane] |  |  |  | 97 |  |  |  |  | 100 | ineffective | M. arenaria [J2] juvenile populations in soil ([6]; listed as 1 iodopropane): ineffective; M. arenaria [J2] juvenile populations in soil ([6]; listed as iodopropane): increased directly; Root galling (root knot) by M. arenaria ([6]; soybean after 8 weeks, rates 0.1-0.4 ml/kg soil): no significant effect; % Mortality after 1 h exposure, American cockroach ([3]; 1 h exposure): 100%; % Mortality after 24 h exposure, American cockroach ([3]; 24 h exposure): 100%; % Mortality after 1 h exposure, German cockroach ([4]; 1 h exposure): 100%; % Mortality after 24 h exposure, German cockroach ([4]; 24 h exposure): 100%
3 | IC(I)=C(I)I [tetraiodoethylene] |  |  |  | 0 | 0 | 0 | 0 | 3 |  |  | 
4 | ICCCCCCCCI [1,8-diiodooctane] | suppressed |  |  | 0 | 0 | 0 | 0 | 0 |  |  | M. arenaria juvenile (J2) populations in preplant samples (Meloidogyne arenaria; all rates (2.5, 5.0, 7.5, 10 mg/Kg soil)): ineffective; M. arenaria J2 numbers in final soil samples (Meloidogyne arenaria; final soil samples after soybean growth, rates 2.5-10 mg/kg soil): did not change significantly; Shoot weights of soybean ([7]; 2.5 mg rate): increased shoot weights slightly; Shoot weights of soybean ([7]; rates higher than 2.5 mg): no significant effect
5 | CCI [iodoethane] |  |  |  | 100 | 100 | 100 | 100 | 100 | 100 | ineffective | M. arenaria [J2] juvenile populations in soil [6]: ineffective; Gall formation by M. arenaria ([6]; applied at ≧0.2 ml/kg soil): Significant suppression
6 | ICCCCCCI [1,6-diodohexane, 1,6-diiodohexane] | virtually eliminated | virtually eliminated | more sensitive | 0 | 5 | 0 | 0 | 0 |  |  | 

— patent US6465527B1, “Iodinated hydrocarbon pesticide” (priority 1999, dated 2002)
